# Measurements taken from ChEMBL document CHEMBL1149774, “Synthesis of N-(5,7-diamino-3-phenyl-quinoxalin-2-yl)-3,4,5-substituted anilines and N-[4[(5,7-diamino-3-phenylquinoxalin-2-yl)amino]benzoyl]-l-glutamic acid diethyl ester: evaluation of in vitro anti-cancer and anti-folate activities” (Eur J Med Chem, 2008).
# Columns and labels:
# Type in all cases: functional
# UACC-62 = experiment: Growth inhibition of human UACC62 cells after 48 hrs by SRB staining method; conditions: UACC-62, 48 h
# CAKI-1 = experiment: Growth inhibition of human CAKI1 cells after 48 hrs by SRB staining method; conditions: CAKI-1, 48 h
# MDA-MB-435 = experiment: Growth inhibition of human MDA-MB-435 cells after 48 hrs by SRB staining method; conditions: MDA-MB-435, 48 h
# NCI/ADR-RES = experiment: Growth inhibition of human NCI/ADR-RES cells after 48 hrs by SRB staining method
# U-251 = experiment: Growth inhibition of human U251 cells after 48 hrs by SRB staining method; conditions: U-251, 48 h
# HCT-116 = experiment: Growth inhibition of human HCT116 cells after 48 hrs by SRB staining method; conditions: HCT-116, 48 h
# IGROV-1 = experiment: Growth inhibition of human IGROV1 cells after 48 hrs by SRB staining method; conditions: IGROV-1, 48 h
# A498 = experiment: Growth inhibition of human A498 cells after 48 hrs by SRB staining method; conditions: A498, 48 h
# OVCAR-8 = experiment: Growth inhibition of human OVCAR8 cells after 48 hrs by SRB staining method; conditions: OVCAR-8, 48 h
# MCF7 = experiment: Growth inhibition of human MCF7 cells after 48 hrs by SRB staining method; conditions: MCF7, 48 h
# M14 = experiment: Growth inhibition of human M14 cells after 48 hrs by SRB staining method; conditions: M14, 48 h
# RXF 393 = experiment: Growth inhibition of human RXF393 cells after 48 hrs by SRB staining method; conditions: RXF 393, 48 h
# PC-3 = experiment: Growth inhibition of human PC3 cells after 48 hrs by SRB staining method; conditions: PC-3, 48 h
# SF-268 = experiment: Growth inhibition of human SF268 cells after 48 hrs by SRB staining method; conditions: SF-268, 48 h
# KM12 = experiment: Growth inhibition of human KM12 cells after 48 hrs by SRB staining method; conditions: KM12, 48 h
# SK-MEL-28 = experiment: Growth inhibition of human SK-MEL-28 cells after 48 hrs by SRB staining method; conditions: SK-MEL-28, 48 h
# K562 = experiment: Growth inhibition of human K562 cells after 48 hrs by SRB staining method; conditions: K562, 48 h
# NCI-H460 = experiment: Growth inhibition of human NCI-H460 cells after 48 hrs by SRB staining method; conditions: NCI-H460, 48 h
# UACC-257 = experiment: Growth inhibition of human UACC257 cells after 48 hrs by SRB staining method; conditions: UACC-257, 48 h
# TK-10 = experiment: Growth inhibition of human TK10 cells after 48 hrs by SRB staining method; conditions: TK-10, 48 h
# DU-145 = experiment: Growth inhibition of human DU145 cells after 48 hrs by SRB staining method; conditions: DU-145, 48 h
# SR = experiment: Growth inhibition of human SR cells after 48 hrs by SRB staining method
# SK-MEL-5 = experiment: Growth inhibition of human SK-MEL-5 cells after 48 hrs by SRB staining method; conditions: SK-MEL-5, 48 h
# A549 = experiment: Growth inhibition of human A549 cells after 48 hrs by SRB staining method; conditions: A549, 48 h
# ACHN = experiment: Growth inhibition of human ACHN cells after 48 hrs by SRB staining method
# SK-OV-3 = experiment: Growth inhibition of human SKOV3 cells after 48 hrs by SRB staining method; conditions: SK-OV-3, 48 h
# MDA-MB-231 = experiment: Growth inhibition of human MDA-MB-231 cells after 48 hrs by SRB staining method; conditions: MDA-MB-231, 48 h
# SNB-19 = experiment: Growth inhibition of human SNB19 cells after 48 hrs by SRB staining method; conditions: SNB-19, 48 h
# EKVX = experiment: Growth inhibition of human EKVX cells after 48 hrs by SRB staining method
# SF-295 = experiment: Growth inhibition of human SF295 cells after 48 hrs by SRB staining method; conditions: SF-295, 48 h
# 786-0 = experiment: Growth inhibition of human 786-0 cells after 48 hrs by SRB staining method; conditions: 786-0, 48 h
# NCI-H23 = experiment: Growth inhibition of human NCI-H23 cells after 48 hrs by SRB staining method; conditions: NCI-H23, 48 h
# [1] = read-out: pLC50 (the source's name) (converted)
smiles,measurement,setting,value
Nc1cc(N)c2nc(-c3ccccc3)c(Nc3ccc(F)cc3)nc2c1,GI50,UACC-62,16.2 µM
same,TGI,UACC-62; read-out: pTGI (converted),31.6 µM
same,GI50,CAKI-1,19.1 µM
same,CC50,CAKI-1; [1],85.1 µM
same,TGI,CAKI-1; read-out: pTGI (converted),40.7 µM
same,GI50,MDA-MB-435,7.41 µM
same,CC50,MDA-MB-435; [1],50.1 µM
same,TGI,MDA-MB-435; read-out: pTGI (converted),20.9 µM
same,GI50,NCI/ADR-RES,24 µM
same,CC50,NCI/ADR-RES; [1],> 100 µM
same,TGI,NCI/ADR-RES; read-out: pTGI (converted),57.5 µM
same,GI50,U-251,5.62 µM
same,TGI,U-251; read-out: pTGI (converted),20 µM
same,GI50,HCT-116,20 µM
same,TGI,HCT-116; read-out: pTGI (converted),> 100 µM
same,GI50,IGROV-1,16.6 µM
same,TGI,IGROV-1; read-out: pTGI (converted),> 100 µM
same,GI50,A498,17.4 µM
same,CC50,A498; [1],66.1 µM
same,TGI,A498; read-out: pTGI (converted),20 µM
same,GI50,OVCAR-8,12.3 µM
same,CC50,OVCAR-8; [1],74.1 µM
same,TGI,OVCAR-8; read-out: pTGI (converted),30.2 µM
same,GI50,MCF7,12.6 µM
same,CC50,MCF7; [1],> 100 µM
same,TGI,MCF7; read-out: pTGI (converted),> 100 µM
same,GI50,M14,16.2 µM
same,TGI,M14; read-out: pTGI (converted),43.7 µM
same,GI50,RXF 393,8.71 µM
same,CC50,RXF 393; [1],85.1 µM
same,TGI,RXF 393; read-out: pTGI (converted),28.8 µM
same,GI50,PC-3,11.7 µM
same,CC50,PC-3; [1],> 100 µM
same,TGI,PC-3; read-out: pTGI (converted),> 100 µM
same,GI50,SF-268,13.2 µM
same,CC50,SF-268; [1],> 100 µM
same,TGI,SF-268; read-out: pTGI (converted),40.7 µM
same,GI50,KM12,12 µM
same,TGI,KM12; read-out: pTGI (converted),29.5 µM
same,GI50,SK-MEL-28,20.4 µM
same,CC50,SK-MEL-28; [1],75.9 µM
same,TGI,SK-MEL-28; read-out: pTGI (converted),38.9 µM
same,GI50,K562,5.01 µM
same,CC50,K562; [1],> 100 µM
same,TGI,K562; read-out: pTGI (converted),> 100 µM
same,GI50,NCI-H460,26.3 µM
same,TGI,NCI-H460; read-out: pTGI (converted),> 100 µM
same,GI50,UACC-257,15.1 µM
same,TGI,UACC-257; read-out: pTGI (converted),28.8 µM
same,GI50,TK-10,17.4 µM
same,CC50,TK-10; [1],74.1 µM
same,TGI,TK-10; read-out: pTGI (converted),35.5 µM
same,GI50,DU-145,12 µM
same,CC50,DU-145; [1],66.1 µM
same,TGI,DU-145; read-out: pTGI (converted),28.2 µM
same,GI50,SR,5.37 µM
same,GI50,SK-MEL-5,14.5 µM
same,TGI,SK-MEL-5; read-out: pTGI (converted),33.1 µM
same,GI50,A549,17.4 µM
same,CC50,A549; [1],> 100 µM
same,TGI,A549; read-out: pTGI (converted),44.7 µM
same,GI50,ACHN,10.2 µM
same,CC50,ACHN; [1],49 µM
same,TGI,ACHN; read-out: pTGI (converted),22.4 µM
same,GI50,SK-OV-3,40.7 µM
same,CC50,SK-OV-3; [1],> 100 µM
same,TGI,SK-OV-3; read-out: pTGI (converted),> 100 µM
same,GI50,MDA-MB-231,11 µM
same,CC50,MDA-MB-231; [1],85.1 µM
same,TGI,MDA-MB-231; read-out: pTGI (converted),30.2 µM
same,GI50,SNB-19,21.9 µM
same,TGI,SNB-19; read-out: pTGI (converted),39.8 µM
same,GI50,EKVX,12 µM
same,CC50,EKVX; [1],75.9 µM
same,TGI,EKVX; read-out: pTGI (converted),30.2 µM
same,GI50,SF-295,14.5 µM
same,TGI,SF-295; read-out: pTGI (converted),32.4 µM
same,GI50,786-0,17.4 µM
same,CC50,786-0; [1],> 100 µM
same,TGI,786-0; read-out: pTGI (converted),53.7 µM
same,GI50,NCI-H23,22.4 µM
same,TGI,NCI-H23; read-out: pTGI (converted),49 µM
